Source: patent publication US11739074B2, “Ras inhibitors” (Revolution Medicines, Inc., priority 2019, dated 2023)
Read-outs that look alike come from different tables or passages of the source.

Experiments:
Assay type in all cases: cell-based
NCI-H358 (K-Ras G12C) = assay: CellTiter-Glo cell viability assay, H358; conditions: Homo sapiens, NCI-H358, 120 h, NCI-H358, K-Ras G12C, 5-day treatment; read-out: H358 Cell Viability IC50
Description: Determination of Cell Viability in RAS Mutant Cancer Cell Lines
Protocol: CellTiter-Glo® Cell Viability Assay
Note—The following protocol describes a procedure for monitoring cell viability of K-Ras mutant cancer cell lines in response to a compound of the invention. Other RAS isoforms may be employed, though the number of cells to be seeded will vary based on cell line used.
Test compounds (132.5 nL) were directly dispensed into the assay plates containing cells. […] On day 5, assay plates and their contents were equilibrated to room temperature for approximately 30 minutes. […] Luminescence was measured using the PerkinElmer Enspire. Data were normalized by the following: (Sample signal/Avg. DMSO)*100. The data were fit using a four-parameter logistic fit.

AsPC-1 (K-Ras G12D) [1] = assay: CellTiter-Glo cell viability assay, AsPC-1; conditions: Homo sapiens, ASPC1, 120 h
Outline: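 Test compounds were dispensed directly onto seeded cells, and on day 5 plates were brought to room temperature for about 30 minutes before CellTiter-Glo luminescence was read. Signals were expressed as percent of the mean DMSO control and fitted with a four-parameter logistic model.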

AsPC-1 (K-Ras G12D) [2] = assay: Potency assay: pERK in AsPC-1 cells; conditions: Homo sapiens
[3] = AsPC-1, K-Ras G12D, 5-day treatment, read-out: AsPC-1 Cell Viability IC50
[4] = ASPC1, AsPC-1 cells, K-Ras G12D, read-out: pERK EC50 (AsPC-1 KRAS G12D)

| Structure (SMILES) | IC50 (NCI-H358 (K-Ras G12C)) [nM] | IC50 (AsPC-1 (K-Ras G12D) [1]; [3]) [nM] | EC50 (AsPC-1 (K-Ras G12D) [2]; [4]) [nM] | IC50 (AsPC-1 (K-Ras G12D) [1]; read-out: AsPC-1 Cell Viability IC50, AsPC-1, K-Ras G12D, 5-day treatment) [nM] | EC50 (AsPC-1 (K-Ras G12D) [2]; ASPC1, read-out: pERK EC50 (AsPC-1 KRAS G12D)) [nM] |
| --- | --- | --- | --- | --- | --- |
| CCn1c(-c2cnccc2COC)c2c3cc(ccc31)-c1cccc(c1)C[C@H](NC(=O)[C@H](C(C)C)N(C)C(=O)CCN=C=NCc1ccc(OC)cc1)C(=O)N1CCC[C@H](N1)C(=O)OCC(C)(C)C2 (atropisomer, axis not shown) [18 A and B] | 1000 to 10000 | 1000 to 10000 |  |  |  |
| CCn1c(-c2cnccc2COC)c2c3cc(ccc31)-c1cc(O)cc(c1)C[C@H](NC(=O)[C@H](C(C)C)N(C)C(=O)CCN(C)C(=O)[C@H]1CN1)C(=O)N1CCC[C@H](N1)C(=O)OCC(C)(C)C2 (single isomer, unassigned) [Compound 41] | 10 to 100 | > 10000 |  |  |  |
| CCn1c(-c2cnccc2COC)c2c3cc(ccc31)-c1cccc(c1)C[C@H](NC(=O)[C@H](C(C)C)N(C)C(=O)CCN=C=NCCCSC)C(=O)N1CCC[C@H](N1)C(=O)OCC(C)(C)C2 [16 A and B] | 1000 to 10000 | 1000 to 10000 |  |  |  |
| CCn1c(-c2cnccc2COC)c2c3cc(ccc31)-c1cccc(c1)C[C@H](NC(=O)[C@H](C(C)C)N(C)C(=O)CCN=C=NCc1ccccc1)C(=O)N1CCC[C@H](N1)C(=O)OCC(C)(C)C2 [19 A and B] | 1000 to 10000 | 100 to 1000 |  |  |  |
| CCn1c(-c2cnccc2COC)c2c3cc(ccc31)-c1cccc(c1)C[C@H](NC(=O)[C@H](C(C)C)N(C)C(=O)CCN=C=Nc1ccccc1OC)C(=O)N1CCC[C@H](N1)C(=O)OCC(C)(C)C2 [20 A and B] | 1000 to 10000 | > 10000 |  |  |  |
| CCn1c(-c2cnccc2COC)c2c3cc(ccc31)-c1cccc(c1)C[C@H](NC(=O)[C@H](C(C)C)N(C)C(=O)CCN=C=NCCOC)C(=O)N1CCC[C@H](N1)C(=O)OCC(C)(C)C2 [23 A and B] | 1000 to 10000 | 1000 to 10000 |  |  |  |
| CCn1c(-c2cnccc2COC)c2c3cc(ccc31)-c1cccc(c1)C[C@H](NC(=O)[C@H](C(C)C)N(C)C(=O)CCN=C=Nc1ccc(OC)cc1OC)C(=O)N1CCC[C@H](N1)C(=O)OCC(C)(C)C2 [24 A and B] | 1000 to 10000 | > 10000 |  |  |  |
| CCn1c(-c2cnccc2COC)c2c3cc(ccc31)-c1cccc(c1)C[C@H](NC(=O)[C@H](C(C)C)N(C)C(=O)CCN=C=NCc1c(OC)cccc1OC)C(=O)N1CCC[C@H](N1)C(=O)OCC(C)(C)C2 [62 A and B] | 1000 to 10000 | 1000 to 10000 |  |  |  |
| CCn1c(-c2cnccc2COC)c2c3cc(ccc31)-c1cccc(c1)C[C@H](NC(=O)[C@H](C(C)C)N(C)C(=O)CCN=C=NCCc1cccs1)C(=O)N1CCC[C@H](N1)C(=O)OCC(C)(C)C2 [68 A and B] | 1000 to 10000 | 1000 to 10000 |  |  |  |
| CCn1c(-c2cnccc2COC)c2c3cc(ccc31)-c1cc(O)cc(c1)C[C@H](NC(=O)[C@H](C(C)C)N(C)C(=O)[C@H]1CCN(C(=O)[C@@H]3CN3)C1)C(=O)N1CCC[C@H](N1)C(=O)OCC(C)(C)C2 [Compound 2] | 10 to 100 | > 10000 |  |  |  |
| CCn1c(-c2cnccc2COC)c2c3cc(ccc31)-c1cc(O)cc(c1)C[C@H](NC(=O)[C@H](C(C)C)N(C)C(=O)C1CCN(C(=O)[C@H]3CN3)CC1)C(=O)N1CCC[C@H](N1)C(=O)OCC(C)(C)C2 [Compound 3] | 100 to 1000 | > 10000 |  |  |  |
| CCn1c(-c2cnccc2COC)c2c3cc(ccc31)-c1cc(O)cc(c1)C[C@H](NC(=O)[C@H](C(C)C)N(C)C(=O)C1CCN(C(=O)[C@@H]3CN3)CC1)C(=O)N1CCC[C@H](N1)C(=O)OCC(C)(C)C2 [Compound 4] | 100 to 1000 | > 10000 |  |  |  |
| CCn1c(-c2cnccc2COC)c2c3cc(ccc31)-c1cc(O)cc(c1)C[C@H](NC(=O)[C@H](C(C)C)N(C)C(=O)C1CN(C(=O)[C@H]3CN3)C1)C(=O)N1CCC[C@H](N1)C(=O)OCC(C)(C)C2 [Compound 5] | 10 to 100 | > 10000 |  |  |  |
| CCn1c(-c2cnccc2COC)c2c3cc(ccc31)-c1cc(O)cc(c1)C[C@H](NC(=O)[C@H](C(C)C)N(C)C(=O)C1CN(C(=O)[C@@H]3CN3)C1)C(=O)N1CCC[C@H](N1)C(=O)OCC(C)(C)C2 [Compound 6] | 100 to 1000 | > 10000 |  |  |  |
| CCn1c(-c2cccnc2[C@H](C)OC)c2c3cc(ccc31)-c1cc(O)cc(c1)C[C@H](NC(=O)[C@H](C(C)C)N1CC[C@]3(CCN(C(=O)[C@@H]4N[C@@H]4C4CC4)C3)C1=O)C(=O)N1CCC[C@H](N1)C(=O)OCC(C)(C)C2 [Compound 305] |  | 100 to 1000 | < 5000 |  |  |
| CCN1C[C@@H]1C(=O)N(C)CC(=O)N(C)[C@H](C(=O)N[C@H]1Cc2cc(O)cc(c2)-c2ccc3c(c2)c(c(-c2cccnc2[C@H](C)OC)n3CC)CC(C)(C)COC(=O)[C@@H]2CCCN(N2)C1=O)C1CCCC1 (stereo partly drawn) [Compound 309] |  | 10 to 100 | < 5000 |  |  |
| CCn1c(-c2cccnc2[C@H](C)OC)c2c3cc(ccc31)-c1csc(n1)C[C@H](NC(=O)[C@H](C(C)C)N(C)C(=O)N(C)[C@H]1CCN(C(=O)[C@@H]3CN3)C1)C(=O)N1CCC[C@H](N1)C(=O)OCC(C)(C)C2 [Compound 310] |  | 1000 to 10000 | < 5000 |  |  |
| CCn1c(-c2cccnc2[C@H](C)OC)c2c3cc(ccc31)-c1cc(O)cc(c1)C[C@H](NC(=O)[C@H](C(C)C)N(C)C(=O)[C@]1(F)CCN(C(=O)[C@H]3CN3)C1)C(=O)N1CCC[C@H](N1)C(=O)OCC(C)(C)C2 [Compound 311] |  | 100 to 1000 | < 5000 |  |  |
| CCn1c(-c2cccnc2[C@H](C)OC)c2c3cc(ccc31)-c1cc(O)cc(c1)C[C@H](NC(=O)[C@H](C1CCCC1)N(C)C(=O)CN(C)C(=O)[C@@H]1N[C@@H]1C1(F)CC1)C(=O)N1CCC[C@H](N1)C(=O)OCC(C)(C)C2 [Compound 314] |  | 100 to 1000 | < 5000 |  |  |
| CCn1c(-c2cccnc2[C@H](C)OC)c2c3cc(ccc31)-c1cc(O)cc(c1)C[C@H](NC(=O)[C@H](C1CCCC1)N(C)C(=O)CN(C)C(=O)[C@H]1N[C@H]1C1(F)CC1)C(=O)N1CCC[C@H](N1)C(=O)OCC(C)(C)C2 [Compound 315] |  | 100 to 1000 | < 5000 |  |  |
| CCn1c(-c2cccnc2[C@H](C)OC)c2c3cc(ccc31)-c1cc(O)cc(c1)C[C@H](NC(=O)[C@H](C1CCCC1)N(C)C(=O)[C@@H](C)N(C)C(=O)[C@@H]1N[C@@H]1C1CC1)C(=O)N1CCC[C@H](N1)C(=O)OCC(C)(C)C2 [Compound 327] |  | 1000 to 10000 | < 5000 |  |  |
| CCn1c(-c2cccnc2[C@H](C)OC)c2c3cc(ccc31)-c1cc(O)cc(c1)C[C@H](NC(=O)[C@H](C(C)C)N(C)C(=O)c1ccc([C@@H]3CN3)nc1)C(=O)N1CCC[C@H](N1)C(=O)OCC(C)(C)C2 [Example 87, 6-((S)-aziridin-2-yl)-N-((2S)-1-(((6^3S,4S)-1^1-ethyl-2^5-hydroxy-1^2-(2-((S)-1-methoxyethyl)pyridin-3-yl)-10,10-dimethyl-5,7-dioxo-6^1,6^2,6^3,6^4,6^5,6^6-hexahydro-1^1H-8-oxa-1(5,3)-indola-6(1,3)-pyridazina-2(1,3)-benzenacycloundecaphane-4-yl)amino)-3-methyl-1-oxobutan-2-yl)-N-methylnicotinamide] |  | 1000 to 10000 | < 5000 |  |  |
| CCn1c(-c2cccnc2[C@H](C)OC)c2c3cc(ccc31)-c1cc(O)cc(c1)C[C@H](NC(=O)[C@H](C(C)C)N(C)C(=O)N1CCN(C(=O)[C@H]3CN3)CC1)C(=O)N1CCC[C@H](N1)C(=O)OCC(C)(C)C2 [Example 177, 4-((R)-aziridine-2-carbonyl)-N-((2S)-1-(((6^3S,4S)-1^1-ethyl-2^5-hydroxy-1^2-(2-((S)-1-methoxyethyl)pyridin-3-yl)-10,10-dimethyl-5,7-dioxo-6^1,6^2,6^3,6^4,6^5,6^6-hexahydro-1^1H-8-oxa-1(5,3)-indola-6(1,3)-pyridazina-2(1,3)-benzenacycloundecaphane-4-yl)amino)-3-methyl-1-oxobutan-2-yl)-N-methylpiperazine-1-carboxamide] |  | 1000 to 10000 | < 5000 |  |  |
| CCn1c(-c2cccnc2[C@H](C)OC)c2c3cc(ccc31)-c1cc(O)cc(c1)C[C@H](NC(=O)[C@H](C(C)C)N(C)C(=O)CN(C)C(=O)[C@H]1CN1CCCN1CCCC1=O)C(=O)N1CCC[C@H](N1)C(=O)OCC(C)(C)C2 (stereo partly drawn) [Example 268, (2R)—N-(2-(((2S)-1-(((6^3S,4S)-1^1-ethyl-2^5-hydroxy-1^2-(2-((S)-1-methoxyethyl)pyridin-3-yl)-10,10-dimethyl-5,7-dioxo-6^1,6^2,6^3,6^4,6^5,6^6-hexahydro-1^1H-8-oxa-1(5,3)-indola-6(1,3)-pyridazina-2(1,3)-benzenacycloundecaphane-4-yl)amino)-3-methyl-1-oxobutan-2-yl)(methyl)amino)-2-oxoethyl)-N-methyl-1-(3-(2-oxopyrrolidin-1-yl)propyl)aziridine-2-carboxamide] |  |  |  | 1000 to 10000 | < 5000 |
